Patent publication US20190046558A1, “COMPOSITION AND METHODS OF INHIBITING AMYLASE-MEDIATED HYDROLYSIS OF ALPHA (1 to 4)-LINKED GLUCOSE POLYMERS” (priority 2015, published 2019)

Target: T1, porcine pancreatic α-amylase (Sus scrofa, UniProt P00690)
T1 construct: purchased Megazyme, Inc
T1 sequence (P00690 16-511): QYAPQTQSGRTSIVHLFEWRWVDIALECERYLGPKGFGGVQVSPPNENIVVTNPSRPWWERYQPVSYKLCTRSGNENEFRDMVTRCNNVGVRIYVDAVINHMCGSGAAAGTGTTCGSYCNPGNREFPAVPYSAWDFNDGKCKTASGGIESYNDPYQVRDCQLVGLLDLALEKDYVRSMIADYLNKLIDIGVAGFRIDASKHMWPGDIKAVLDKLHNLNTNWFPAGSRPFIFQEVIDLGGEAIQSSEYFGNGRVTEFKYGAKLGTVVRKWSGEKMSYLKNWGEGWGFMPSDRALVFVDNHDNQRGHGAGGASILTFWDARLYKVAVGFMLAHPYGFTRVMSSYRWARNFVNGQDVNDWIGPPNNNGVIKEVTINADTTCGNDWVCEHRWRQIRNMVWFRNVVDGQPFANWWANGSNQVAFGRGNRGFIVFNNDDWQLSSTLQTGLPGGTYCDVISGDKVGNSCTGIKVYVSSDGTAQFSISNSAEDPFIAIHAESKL
Assay: colorimetric starch-iodine assay of amylase-mediated starch hydrolysis
Type: biochemical
Details: read-out: Fraction Inhibited (starch-iodine assay)
Method: The effectiveness of GMα (panel A) and GMβ (panel) to inhibit starch hydrolysis (1 mg/ml) mediated by porcine pancreatic α-amylase (1 μM) is shown as a function of the concentration of GMα and GMβ. The Fraction of Reaction Inhibited was calculated using U/ml values determined from the iodine-starch assay as described by (ref), with U/ml=(As62 control−As62 sample)/(As62 starch×20 min×0.1 ml reaction volume), a value that can be interpreted as mg of starch hydrolyzed per minute. The Fraction of “Unfolded” Starch was calculated in the absence of enzyme as A562 taken in the presence of GMα (panel C) and GMβ (panel D) divided by A562 taken in the absence of the GM. General solution conditions are 20 mM potassium phosphate, pH 7, 30° C.;
A standard curve was constructed using 100 μL of 6 concentrations (0-1.0 mg/ml) and 100 μL of soluble starch. A total of 100 μL of 1 mg/ml of soluble starch+/−varying concentrations of GMs were incubated for 20 minutes at 30° C.+/−5 μL enzyme, for a total concentration of 1 μM PPA/well, and the absorbance read at 520 nm.

In the case of `C[C@H]1O[C@H](O[C@H]2[C@H](O)[C@@H](O)[C@@H](O[C@H]3[C@H](O)[C@@H](O)C(O)O[C@@H]3CO)O[C@@H]2CO)[C@H](O)[C@@H](O)[C@@H]1N[C@H]1C=C(CO)[C@@H](O)[C@H](O)[C@H]1O` (stereo partly shown) [Acarbose, acarbose], the inhibition at 400 µM is reported as 79%.
